# Substitutions are numbered along the chain they refer to.
# Experiments:
# [1] = target: T1, Solute carrier family 2, facilitated glucose transporter member 4 (Mus musculus, UniProt P14142); experiment: Competitive inhibition of GLUT4 in mouse 3T3L1 cells assessed as reduction in insulin-stimulated [3H]-2-deoxy-D-glucose uptake preincubated for 20 mins followed by measured for [3H]-2-deoxy-D-glucose addition measured after 1 to 10 mins by Lineweaver-Burk plot analysis; format: cell-based
# T1 sequence (P14142 whole entry): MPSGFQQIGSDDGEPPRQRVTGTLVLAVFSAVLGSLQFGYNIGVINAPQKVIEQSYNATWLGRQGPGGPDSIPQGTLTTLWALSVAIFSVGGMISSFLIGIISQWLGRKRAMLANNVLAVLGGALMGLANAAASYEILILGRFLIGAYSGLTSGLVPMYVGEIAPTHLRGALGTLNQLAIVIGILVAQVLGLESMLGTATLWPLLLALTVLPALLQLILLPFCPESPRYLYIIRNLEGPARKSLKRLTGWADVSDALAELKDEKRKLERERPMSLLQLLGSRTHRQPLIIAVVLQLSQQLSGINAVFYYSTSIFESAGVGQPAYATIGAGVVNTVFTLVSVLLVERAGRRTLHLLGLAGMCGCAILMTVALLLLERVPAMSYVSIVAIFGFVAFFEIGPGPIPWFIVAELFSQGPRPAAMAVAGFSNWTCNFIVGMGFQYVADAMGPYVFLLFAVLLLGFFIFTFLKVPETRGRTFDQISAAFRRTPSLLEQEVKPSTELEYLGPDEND
# [2] = Inhibition of PI3K in human U937 cells assessed as reduction in GLUT4 translocation by measuring reduction in 2-[1,2-3H(N)]deoxy-D-glucose uptake after 3 mins by scintillation spectrometric method; format: cell-based; conditions: U-937
# MCF7 = experiment: Cytotoxicity against human MCF7 cells assessed as growth inhibition at 100 uM after 24 hrs by CellTiter 96 AQueous Non-Radioactive assay relative to control; format: functional; conditions: MCF7, 24 h, read-out: GI
# Homo sapiens = species: Homo sapiens; experiment: (§1) Inhibition of PI3K in human MCF7 cells assessed as reduction in insulin-stimulated GLUT4 translocation by measuring reduction in [1-14C]-2-deoxy-D-glucose uptake at 100 uM pretreated for 15 mins followed by insulin stimulation for 10 mins and subsequent addition of [1-14C]-2-deoxy-D-glucose measured after 10 mins relative to control; format: cell-based
# Mus musculus = species: Mus musculus; experiment: as §1, with “mouse 3T3L1” for “human MCF7”, “6” for “100”, “3 days” for “15 mins”; format: cell-based
# [3] = target: T2, Solute carrier family 2, facilitated glucose transporter member 1 (Homo sapiens, UniProt P11166); experiment: Inhibition of GLUT1 in human MCF7 cells assessed as reduction in [3H]-DG uptake pretreated for 20 mins followed by [3H]-DG addition measured after 6 mins by liquid scintillation counting method; format: cell-based
# T2 sequence (P11166 whole entry): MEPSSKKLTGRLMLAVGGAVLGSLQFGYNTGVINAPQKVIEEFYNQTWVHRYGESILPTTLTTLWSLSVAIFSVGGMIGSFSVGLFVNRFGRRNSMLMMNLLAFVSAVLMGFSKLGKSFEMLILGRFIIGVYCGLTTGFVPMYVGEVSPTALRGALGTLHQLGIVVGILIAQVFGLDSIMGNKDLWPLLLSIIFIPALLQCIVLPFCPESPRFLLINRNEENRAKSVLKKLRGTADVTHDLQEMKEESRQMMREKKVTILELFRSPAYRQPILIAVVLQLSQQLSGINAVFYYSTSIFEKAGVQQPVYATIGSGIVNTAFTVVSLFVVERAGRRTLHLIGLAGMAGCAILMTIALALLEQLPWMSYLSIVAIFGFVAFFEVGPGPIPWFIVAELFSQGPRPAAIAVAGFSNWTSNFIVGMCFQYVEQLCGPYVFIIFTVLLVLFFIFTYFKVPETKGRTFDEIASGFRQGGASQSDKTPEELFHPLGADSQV
# [4] = target: T2, Solute carrier family 2, facilitated glucose transporter member 1; experiment: Mixed type non-competitive inhibition of glucose displaceable binding of [4-3H]cytochalasin B to GLUT1 in human erythrocyte membranes after 10 mins; format: cell membranes
# [5] = target: T2, Solute carrier family 2, facilitated glucose transporter member 1; experiment: Inhibition of GLUT1-mediated [14C]glucose uptake in human erythrocytes; format: cell-based
# [6] = target: T2, Solute carrier family 2, facilitated glucose transporter member 1; experiment: Inhibition of GLUT1-mediated glucose uptake in human A549 cells assessed as reduction in ATP synthesis up to 30 mins in presence of mitochondrial function blocker antimycin A; format: cell-based
# [7] = target: T2, Solute carrier family 2, facilitated glucose transporter member 1; experiment: Non-competitive inhibition of GLUT1-mediated facilitative uptake of [3H]-2-deoxy-D-glucose in human erythrocyte membranes; format: cell membranes
# [8] = target: T2, Solute carrier family 2, facilitated glucose transporter member 1; experiment: Inhibition of GLUT1 (unknown origin)-mediated glucose uptake expressed in CHO-K1 cells assessed as reduction in ATP synthesis up to 30 mins in presence of mitochondrial function blocker antimycin A; format: cell-based
# PC-3 = experiment: Cytotoxicity against human PC3 cells after 48 hrs by SRB assay; format: functional, cell-based; conditions: PC-3, 48 h
# [9] = target: T3, Solute carrier family 2, facilitated glucose transporter member 2 (Homo sapiens, UniProt P11168); experiment: Inhibition of human GLUT2 expressed in Xenopus laevis oocytes assessed as reduction in [14C]fructose uptake by scintillation spectrometric method; format: cell-based
# T3 sequence (P11168 whole entry): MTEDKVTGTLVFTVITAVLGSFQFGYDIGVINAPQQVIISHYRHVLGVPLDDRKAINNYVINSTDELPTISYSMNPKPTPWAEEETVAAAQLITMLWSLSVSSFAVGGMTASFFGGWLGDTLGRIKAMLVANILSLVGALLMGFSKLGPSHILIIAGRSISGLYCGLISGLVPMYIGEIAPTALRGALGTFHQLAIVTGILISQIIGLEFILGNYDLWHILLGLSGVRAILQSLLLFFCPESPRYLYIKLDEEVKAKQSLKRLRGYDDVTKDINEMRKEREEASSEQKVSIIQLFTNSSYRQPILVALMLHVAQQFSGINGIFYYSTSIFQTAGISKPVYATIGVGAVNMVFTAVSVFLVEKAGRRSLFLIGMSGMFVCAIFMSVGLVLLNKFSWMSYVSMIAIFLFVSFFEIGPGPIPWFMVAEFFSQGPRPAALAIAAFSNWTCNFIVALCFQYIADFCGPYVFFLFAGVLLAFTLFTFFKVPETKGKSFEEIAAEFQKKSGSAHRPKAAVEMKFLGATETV
# [10] = target: T3, Solute carrier family 2, facilitated glucose transporter member 2; experiment: Inhibition of human GLUT2 expressed in Xenopus laevis oocytes assessed as reduction in [3H] 2-deoxyglucose uptake by scintillation spectrometric method; format: cell-based
# [11] = target: T4, Solute carrier family 2, facilitated glucose transporter member 4 (Rattus norvegicus, UniProt P19357); experiment: Competitive inhibition of GLUT4 in Wistar rat adipocytes assessed as reduction in insulin-stimulated 3-O-[3H]methyl-D-glucose uptake measured for 30 secs by Lineweaver-Burk plot analysis; format: cell-based
# T4 sequence (P19357 whole entry): T1 sequence (P14142 whole entry) with D11E, R17Q, L208I, I218L, M273L, S316L, G320E, A379S, K467R, A482T
# [12] = Non-competitive inhibition of glucose transporter in HTR-8/SVneo cells assessed as reduction in [3H]DG uptake preincubated for 20 mins followed by [3H]DG addition after 10 mins by liquid scintillation counting method; format: cell-based; conditions: Homo sapiens
# [13] = Inhibition of human LDH5
smiles,measurement,setting,value
COc1cc([C@H]2Oc3cc([C@H]4Oc5cc(O)cc(O)c5C(=O)[C@@H]4O)ccc3O[C@@H]2CO)ccc1O [SILYBIN A],Ki,[1],60 µM
O=C1C[C@@H](c2ccc(O)cc2)Oc2cc(O)cc(O)c21 [NARINGENIN],IC50,[2],50 µM
same,inhibition of growth at 100 µM,MCF7,20%
same,inhibition,Homo sapiens,50%
same,inhibition,Mus musculus,20%
O=c1c(O)c(-c2ccc(O)cc2)oc2cc(O)cc(O)c12 [KAEMPFEROL],IC50,[3],4 µM
Cc1cc2c(C(C)C)c(O)c(O)c(C=O)c2c(O)c1-c1c(C)cc2c(C(C)C)c(O)c(O)c(C=O)c2c1O [GOSSYPOL],Ki,[4],20 µM
CS(=O)(=O)O[C@H]1[C@H](O)[C@@H](O)C(O)O[C@@H]1CO (stereo partly drawn),IC50,[5],32000 µM
CCOC(=O)[C@@]12CCCCC/C=C\1N(Cc1cccc3ccccc13)C(=O)[C@H]2CC(=O)N1CCN(C(=O)c2ccco2)CC1,IC50,[6],10 µM
same,Ki,[7],1.2 µM
same,IC50,[8],2 µM
COc1cc([C@H]2Oc3cc(-c4oc5cc(O)cc(O)c5c(=O)c4O)ccc3O[C@@H]2CO)ccc1O,Ki,[1],114 µM
O=C1C[C@@H]2/C(=C(O)\C=C\c3ccccc3)C(=O)C=C[C@@H]2O1 [CRYPTOCARYONE],IC50,PC-3,1.6 µM
O=c1c(O)c(-c2cc(O)c(O)c(O)c2)oc2cc(O)cc(O)c12 [MYRICETIN],IC50,[9],12 to 17 µM
same,IC50,[10],12 to 17 µM
same,Ki,[11],33.5 µM
COc1cc(O)c(CC=C(C)C)c(O)c1C(=O)/C=C/c1ccc(O)cc1 [XANTHOHUMOL],IC50,[12],3.55 µM
COC(=O)c1cc2c(C(F)(F)F)cc(-c3ccccc3)cc2n1O,Ki,[13],5.1 µM

# Reference: ChEMBL document CHEMBL3992488, “Anticancer agents interacting with membrane glucose transporters” (Medchemcomm, 2016)
